Reference: PMC6862331, “Identification of Isoform-Selective Ligands for the Middle Domain of Heat Shock Protein 90 (Hsp90)” (International Journal of Molecular Sciences, 2019)
Where “and” joins values, the source holds several entries; their conditions need not be identical. Equal values may be shown once. Entries after “also recorded” stand apart in the source; their conditions may differ. Read-outs that look alike come from different tables or passages of the source.

How the values were obtained:
[1] = target: T1, recombinant human Hsp90β MD (Homo sapiens, UniProt P08238); test: Intrinsic tryptophan fluorescence spectroscopy (quenching screen and KD titration) with Hsp90β MD; format: binding; settings: for binding to Hsp90β MD in initial screening: less than 40% quenching eliminated; for Kd: titration, 20 µM Hsp90 MD, 20 mM Tris pH 7.5, 0.2 M KCl, triplicate, error = SD; for selectivity (preference) for the β-isoform over the α-isoform in terms of KD: Hsp90β MD vs Hsp90α MD
T1 construct: made in house; host or cells: Escherichia coli BL21 (DE3)
T1 sequence (P08238 286-546): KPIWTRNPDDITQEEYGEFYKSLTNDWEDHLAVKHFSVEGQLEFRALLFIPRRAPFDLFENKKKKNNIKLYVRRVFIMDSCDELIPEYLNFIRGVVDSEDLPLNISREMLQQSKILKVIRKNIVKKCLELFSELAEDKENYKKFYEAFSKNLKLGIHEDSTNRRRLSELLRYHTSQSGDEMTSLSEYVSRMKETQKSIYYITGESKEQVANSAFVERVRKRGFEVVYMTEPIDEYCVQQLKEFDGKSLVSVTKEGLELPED
From the text: (§1) As a result of virtual screening, 24 hit compounds (Figure 1 and Table S3) were selected for further experimental testing against recombinant human Hsp90α MD (residues 294 to 554, Table S4) and human Hsp90β MD (residues 286 to 546, Table S5). As there are tryptophan residues located within the defined binding pocket in both Hsp90α MD and Hsp90β MD, intrinsic tryptophan fluorescence quenching experiment was used to screen the binding of our virtual hits to the proteins. Initial screening experiments were conducted by using 20 μM of Hsp90α/β MD and 1 mM of compounds. Molecules that gave less than 40% fluorescence quenching were eliminated.
(§2) We then focussed on studying the binding of our compounds (5, 8, 9, 10, 12, 17, 22, 24) to both Hsp90α MD and Hsp90β MD. Titration experiments were performed to quantify the binding affinity (dissociation constant, KD) to Hsp90α MD and Hsp90β MD (Table 1 and Figures S3–S10). The KD values of gambogic acid were also measured as control (Table 1 and Figure S11). […] Our KD values for gambogic acid are in agreement with previous studies (~10-fold preference). The selectivity for the β-isoform (over α-isoforms) was progressively less for weaker binders.
(§3) Fluorescence was measured using EnSpire Multimode Plate Reader (PerkinElmer, Melbourne, Australia). Experiments were performed in 20 µM of Hsp90 MD in 20 mM Tris (pH 7.5) and 0.2 M KCl. Different concentration of the virtual hits (InterBioScreen, Bar, Montenegro) or gambogic acid were added to the mixture. Excitation wavelength was 280 nm and intrinsic fluorescence was measured between 300 and 450 nm. The control experiment with Hsp90 MD on its own was conducted. Background fluorescence arising from the compound was subtracted to generate the final spectrum. The total volume per well of the 96-well microplate was 30 µL. Non-linear curve fitting of Equation (1) to the data was conducted using SigmaPlot 14.0 (Systat Software, San Jose, CA, USA). All tests were conducted in triplicate and the errors shown are standard deviation. KD was calculated for each binder using Equation (1), where Δobs is the changes in fluorescence intensity from the titrations, Δmax is the maximum fluorescence intensity change, [LT] represents the titrated ligand concentration, and [PT] indicates the protein concentration.
(§4) (1) Δobs=Δmax×(KD+[LT]+[PT])−(KD+[LT]+[PT])^2−(4×[PT]×[LT])/2×[PT]
(§5) Supplementary Figure S2. Screening of the virtual hits (1 mM) to Hsp90α/β MD (20 μM) by intrinsic protein fluorescence. Percentage fluorescence quenching was calculated with the […]
(§6) % Fluorescence quenching = (Iprotein − Iprotein+compound) […]
(§7) In which Iprotein denotes intrinsic fluorescence intensity of the protein in the absence of any compound, Iprotein+compound denotes intrinsic fluorescence intensity of the protein in the presence of the compound. Experiments were conducted in triplicate. Errors shown are standard […]
(§8) (1 picture or pasted object on this page, not shown here)

[2] = target: T2, recombinant human Hsp90α MD (Homo sapiens, UniProt P07900); test: Intrinsic tryptophan fluorescence spectroscopy (quenching screen and KD titration) with Hsp90α MD; format: binding; settings: for binding to Hsp90α MD in initial screening: less than 40% quenching eliminated
T2 construct: made in house; host or cells: Escherichia coli BL21 (DE3)
From the text: as §1, §2, §3, §4, §5, §6, §7, §8

[3] = target: T1, recombinant human Hsp90β MD; design: method as in PMID 27466407; settings: cited from earlier work
[4] = titration, 20 µM Hsp90 MD, 20 mM Tris pH 7.5, 0.2 M KCl, triplicate, error = SD, read-out: KD to Hsp90α MD
[5] = initial screen, 1 mM compound, 20 μM protein

| binding to Hsp90β MD in initial screening ([1]; 1 mM compound, 20 μM protein) | Kd ([1]; read-out: KD to Hsp90β MD) | binding to Hsp90α MD in initial screening ([2]; 1 mM compound, 20 μM protein) | Kd [2, 4] [µM] | Structure (SMILES) | selectivity (preference) for the β-isoform over the α-isoform in terms of KD [1] | Kd ([1]; KD to Hsp90β MD) | fluorescence quenching of Hsp90β MD [1, 5] | Kd [2] [µM] | fluorescence quenching of Hsp90α MD [2, 5] | preference for Hsp90β MD over Hsp90α MD, previous study [3] |
| --- | --- | --- | --- | --- | --- | --- | --- | --- | --- | --- |
| bind to both Hsp90α MD and Hsp90β MD | 136 ± 1 µM | bind to both Hsp90α MD and Hsp90β MD | 470 ± 2 | CCC[C@@H](NC(=O)C(C)Oc1ccc2c(-c3ccccc3)cc(=O)oc2c1)C(=O)O (stereo partly drawn) [Compound 5, (2R)-2-(2-((2-oxo-4-phenyl-2H-chromen-7-yl)oxy)propanamido)pentanoic acid] |  |  |  |  |  |  |
| bind to both Hsp90α MD and Hsp90β MD | > 500 µM | bind to both Hsp90α MD and Hsp90β MD | 284 ± 4 | O=C(CNC(=O)OCc1ccccc1)Oc1cc(O)c2c(=O)cc(-c3ccccc3)oc2c1 [Compound 8, 5-hydroxy-4-oxo-2-phenyl-4H-chromen-7-yl ((benzyloxy)carbonyl)glycinate] | slight preference for Hsp90α MD |  |  |  |  |  |
| bind to both Hsp90α MD and Hsp90β MD | 57 ± 1 µM | bind to both Hsp90α MD and Hsp90β MD | 299 ± 3 | CCC(C)[C@@H](NC(=O)C(C)Oc1ccc2c(-c3ccccc3)cc(=O)oc2c1)C(=O)O (stereo partly drawn) [Compound 9, (2R)-3-methyl-2-(2-((2-oxo-4-phenyl-2H-chromen-7-yl)oxy)propanamido)pentanoic acid] |  |  |  |  |  |  |
|  |  |  |  | CN[C@H]1CCc2cc(OC)c(OC)c(OC)c2-c2ccc(NCc3cccnc3)c(=O)cc21 [Compound 10, (S)-1,2,3-trimethoxy-7-(methylamino)-10-((pyridin-3-ylmethyl)amino)-6,7-dihydrobenzo[a]heptalen-9(5H)-one] | bind stronger to Hsp90β MD than to Hsp90α MD | > 100 µM and 164 µM | ~ 90% | > 500 | ~ 20% |  |
| bind to both Hsp90α MD and Hsp90β MD | < 20 µM | bind to both Hsp90α MD and Hsp90β MD | 92 ± 0.8 | O=C(CC1=C(O)C(=O)c2ccccc2C1=O)c1ccccc1 [Compound 12, 2-hydroxy-3-(2-oxo-2-phenylethyl)naphthalene-1,4-dione] | bind stronger to Hsp90β MD than to Hsp90α MD; also recorded: seven-fold |  |  |  |  |  |
| bind to both Hsp90α MD and Hsp90β MD | > 100 µM and 285 µM | bind to both Hsp90α MD and Hsp90β MD | 506 ± 4 | CC(=O)N[C@H]1[C@H](Oc2ccc3c(=O)c(-c4ccc5c(c4)OCCCO5)c(C)oc3c2)O[C@H](CO)[C@@H](O)[C@@H]1O [Compound 17, N-((2S,3R,4R,5S,6R)-2-((3-(3,4-dihydro-2H-benzo[b][1,4]dioxepin-7-yl)-2-methyl-4-oxo-4H-chromen-7-yl)oxy)-4,5-dihydroxy-6-(hydroxymethyl)tetrahydro-2H-pyran-3-yl)acetamide] | bind stronger to Hsp90β MD than to Hsp90α MD |  |  |  |  |  |
| bind to both Hsp90α MD and Hsp90β MD | > 500 µM | bind to both Hsp90α MD and Hsp90β MD | 459 ± 7 | COc1cc(C(=O)NC(Cc2ccccc2)C(=O)O)cc(OC)c1OC (centres unmarked) [Compound 22, (3,4,5-trimethoxybenzoyl)phenylalanine] | slight preference for Hsp90α MD |  |  |  |  |  |
| bind to both Hsp90α MD and Hsp90β MD | > 100 µM and 265 µM | bind to both Hsp90α MD and Hsp90β MD | 661 ± 3 | COc1cc(C2NC(C(=O)O)Cc3c2[nH]c2ccc(OCc4ccccc4)cc32)cc(OC)c1OC (centres unmarked) [Compound 24, 6-(benzyloxy)-1-(3,4,5-trimethoxyphenyl)-2,3,4,9-tetrahydro-1H-pyrido[3,4-b]indole-3-carboxylic acid] | bind stronger to Hsp90β MD than to Hsp90α MD |  |  |  |  |  |

| Structure (SMILES) | binding to Hsp90β MD in initial screening ([1]; 1 mM compound, 20 μM protein) | Kd ([1]; read-out: KD to Hsp90β MD) | binding to Hsp90α MD in initial screening ([2]; 1 mM compound, 20 μM protein) | Kd [2, 4] [µM] | selectivity (preference) for the β-isoform over the α-isoform in terms of KD [1] | Kd ([1]; KD to Hsp90β MD) | fluorescence quenching of Hsp90β MD [1, 5] | Kd [2] [µM] | fluorescence quenching of Hsp90α MD [2, 5] | preference for Hsp90β MD over Hsp90α MD, previous study [3] |
| --- | --- | --- | --- | --- | --- | --- | --- | --- | --- | --- |
| CC(C)=CCC[C@]1(C)C=Cc2c(O)c3c(c(CC=C(C)C)c2O1)O[C@]12C(=C[C@@H]4C[C@H]1C(C)(C)O[C@@]2(C/C=C(/C)C(=O)O)C4=O)C3=O [Gambogic acid, reference compound] |  | 33 ± 2 µM |  | 195 ± 5 |  |  |  |  |  | ~ 7 fold |
